Source: US20260022143A1, “Cyclic Peptide Inhibitors of IL-23” (JANSSEN PHARMACEUTICA NV, priority 2022, published 2026)
Starred links: 1 amine or outer side, 2 acyl side, 3 side chain; linkers in the order of their positions; H or OH if unused. Positions of bridges follow the written chain, without caps; N, C: chain ends. Non-standard residues stand in square brackets, D forms with d. Residues, ends and D or L forms follow the SMILES beside them. *: point of attachment. Trp(7-(3-AcNH-Ph)) = CC(=O)Nc1cccc(-c2cccc3c(C[C@H](N)C(=O)O)c[nH]c23)c1; Me3N+(CH2)2O(CH2)2O(CH2)2CO = C[N+](C)(C)CCOCCOCCC(=O)*; Trp(7-Me) = Cc1cccc2c(C[C@H](N)C(=O)O)c[nH]c12; Abu(4-yl) = O=C([C@H](CC[*:3])N[*:1])[*:2]; dLys(Me3) = C[N+](C)(C)CCCC[C@@H](N)C(=O)O; 3Pal(5-Me) = Cc1cncc(C[C@H](N)C(=O)O)c1; 2Nal = N[C@@H](Cc1ccc2ccccc2c1)C(=O)O; AEF = NCCOc1ccc(C[C@H](N)C(=O)O)cc1; 3Pal = N[C@@H](Cc1cccnc1)C(=O)O; Ethyl(2-guanidino) = N=C(N)NCC*; Lys(Me) = CNCCCC[C@H](N)C(=O)O; Pen = CC(C)(S)[C@H](N)C(=O)O; αMeC = C[C@](N)(CS)C(=O)O; Thp = NC1(C(=O)O)CCOCC1; PEG2 = NCCOCCOCCC(=O)O; X3 = C[N+](C)(C)CCCCC*; Sar = CNCC(=O)O; X58 = NCCCCC*

Experiment: Exposed Polar Surface Area (EPSA)
Assay type: physicochemical
Conditions: SFC on Chirex 3014 column; sample 1 mM DMSO stock; read-out: EPSA
How it was run: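 Polarity descriptor in Å² derived from retention time using 8 calibration standards re-run every 20 compounds. Duplicate injections of 1 mM DMSO stock; linear 5–60% modifier gradient (20 mM ammonium formate in MeOH) with CO2 at 4 mL/min, 35 °C, on a Chirex 3014 column.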

Row | EPSA [A^2] | Structure (SMILES)
1 | 197 | CC(=O)NCCCC[C@@H]1NC(=O)[C@H](Cc2c[nH]c3c(C)cccc23)NC(=O)[C@H]([C@@H](C)O)NC(=O)[C@H](CC(N)=O)NC(=O)[C@@H](NC(=O)[C@@H](CCCNC(=N)N)NC(=O)CCOCCOCC[N+](C)(C)C)C(C)(C)SSC(C)(C)[C@@H](C(=O)N[C@@H](Cc2ccc(OCCNC(=N)N)cc2)C(=O)N[C@@H](Cc2ccc3ccccc3c2)C(=O)NC2(C(=O)N[C@@H](CCC(=O)O)C(=O)N[C@@H](CC(N)=O)C(=O)N[C@@H](Cc3cncc(C)c3)C(=O)N(C)CC(N)=O)CCOCC2)NC1=O [compound 508, cPEG3aCO-r-Pen(3)-N-T-7MeW-K(Ac)-Pen(3)-AEF(G)-2Nal-THP-E-N-5MePyridinAla-Sar-CONH2] ({Me3N+(CH2)2O(CH2)2O(CH2)2CO}-[dR][Pen]NT[Trp(7-Me)]K(Ac)[Pen]Y(Ethyl(2-guanidino))[2Nal][Thp]EN[3Pal(5-Me)][Sar]-NH2; disulfide 2-7)
2 | 224 | CC(=O)NCCCC[C@@H]1NC(=O)[C@H](Cc2c[nH]c3c(-c4cccc(NC(C)=O)c4)cccc23)NC(=O)[C@H]([C@@H](C)O)NC(=O)[C@H](CC(N)=O)NC(=O)[C@@H](NC(=O)[C@@H](CCCC[N+](C)(C)C)NC(C)=O)C(C)(C)SSC(C)(C)[C@@H](C(=O)N[C@@H](Cc2ccc(OCCCCC[N+](C)(C)C)cc2)C(=O)N[C@@H](Cc2ccc3ccccc3c2)C(=O)NC2(C(=O)N[C@@H](CCC(=O)O)C(=O)N[C@@H](CC(N)=O)C(=O)N[C@@H](Cc3cncc(C)c3)C(=O)N(C)CC(N)=O)CCOCC2)NC1=O [compound 513, MeCO-k(Me)3-Pen(3)-N-T-7(3NAcPh)W-K(Ac)-Pen(3)-TMAPF-2Nal-THP-E-N-5MePyridinAla-Sar-CONH2] (Ac-[dLys(Me3)][Pen]NT[Trp(7-(3-AcNH-Ph))]K(Ac)[Pen]Y(X3)[2Nal][Thp]EN[3Pal(5-Me)][Sar]-NH2; disulfide 2-7)
3 | 248 | CC(=O)NCCCC[C@@H]1NC(=O)[C@H](Cc2c[nH]c3c(C)cccc23)NC(=O)[C@H]([C@@H](C)O)NC(=O)[C@H](CC(N)=O)NC(=O)[C@@H](NC(=O)CCOCCOCC[N+](C)(C)C)C(C)(C)SSC(C)(C)[C@@H](C(=O)N[C@@H](Cc2ccc(OCCNC(=N)N)cc2)C(=O)N[C@@H](Cc2ccc3ccccc3c2)C(=O)NC2(C(=O)N[C@@H](CCC(=O)O)C(=O)N[C@@H](CC(N)=O)C(=O)N[C@@H](Cc3cncc(C)c3)C(=O)N(C)CC(N)=O)CCOCC2)NC1=O [compound 514, cPEG3aCO-Pen(3)-N-T-7MeW-K(Ac)-Pen(3)-AEF(G)-2Nal-THP-E-N-5MePyridinAla-Sar-CONH2]
4 | 161 | CC(=O)N(C)CCCC[C@@H]1NC(=O)[C@H](Cc2c[nH]c3c(C)cccc23)NC(=O)[C@H]([C@@H](C)O)NC(=O)[C@H](CC(=O)N(C)C)NC(=O)[C@@H](NC(=O)CCOCCOCCN)C(C)(C)SSC(C)(C)[C@@H](C(=O)N[C@@H](Cc2ccc(OCCCCCN)cc2)C(=O)N[C@@H](Cc2ccc3ccccc3c2)C(=O)NC2(C(=O)N[C@@H](CCCCN(C)C(C)=O)C(=O)N[C@@H](CC(N)=O)C(=O)N[C@@H](Cc3cccnc3)C(=O)N(C)CC(=O)N(C)C)CCOCC2)NC1=O [compound 529, cPEG3AmCO-Pen(3)-N(N(Me)2)-T-7MeW-K(NMeAc)-Pen(3)-APF-2Nal-THP-K(NMeAc)-N-3Pya-Sar-CON(Me)2] (H-[PEG2][Pen]D(NMe2)T[Trp(7-Me)][Lys(Me)](Ac)[Pen]Y(X58)[2Nal][Thp][Lys(Me)](Ac)N[3Pal][Sar]-NMe2; disulfide 2-7)
5 | 190 | CC(=O)NCCCC[C@@H]1NC(=O)[C@H](Cc2c[nH]c3c(-c4cccc(NC(C)=O)c4)cccc23)NC(=O)[C@H]([C@@H](C)O)NC(=O)[C@H](CC(N)=O)NC(=O)[C@@H](NC(=O)[C@@H](CCCC[N+](C)(C)C)NC(C)=O)C(C)(C)SSC(C)(C)[C@@H](C(=O)N[C@@H](Cc2ccc(OCCN)cc2)C(=O)N[C@@H](Cc2ccc3ccccc3c2)C(=O)NC2(C(=O)N[C@@H](CCC(=O)O)C(=O)N[C@@H](CC(N)=O)C(=O)N[C@@H](Cc3cncc(C)c3)C(=O)N(C)CC(N)=O)CCOCC2)NC1=O [compound 535, MeCO-k(Me)3-Pen(3)-N-T-7(3NAcPh)W-K(Ac)-Pen(3)-AEF-2Nal-THP-E-N-5MePyridinAla-Sar-CONH2] (Ac-[dLys(Me3)][Pen]NT[Trp(7-(3-AcNH-Ph))]K(Ac)[Pen][AEF][2Nal][Thp]EN[3Pal(5-Me)][Sar]-NH2; disulfide 2-7)
6 | 210 | CC(=O)NCCCC[C@@H]1NC(=O)[C@H](Cc2c[nH]c3c(-c4cccc(NC(C)=O)c4)cccc23)NC(=O)[C@H]([C@@H](C)O)NC(=O)[C@H](CC(N)=O)NC(=O)[C@@H](NC(=O)[C@@H](CCCNC(=N)N)NC(=O)CCOCCOCC[N+](C)(C)C)C(C)(C)SSC(C)(C)[C@@H](C(=O)N[C@@H](Cc2ccc(OCCN)cc2)C(=O)N[C@@H](Cc2ccc3ccccc3c2)C(=O)NC2(C(=O)N[C@@H](CCC(=O)O)C(=O)N[C@@H](CC(N)=O)C(=O)N[C@@H](Cc3cncc(C)c3)C(=O)N(C)CC(N)=O)CCOCC2)NC1=O [compound 536, cPEG3aCO-r-Pen(3)-N-T-7(3NAcPh)W-K(Ac)-Pen(3)-AEF-2Nal-THP-E-N-5MePyridinAla-Sar-CONH2] ({Me3N+(CH2)2O(CH2)2O(CH2)2CO}-[dR][Pen]NT[Trp(7-(3-AcNH-Ph))]K(Ac)[Pen][AEF][2Nal][Thp]EN[3Pal(5-Me)][Sar]-NH2; disulfide 2-7)
7 | 163 | CC(=O)NCCCC[C@@H]1NC(=O)[C@H](Cc2c[nH]c3cccc(C)c23)NC(=O)[C@H]([C@@H](C)O)NC(=O)[C@H](CC(N)=O)NC(=O)[C@@H](NC(C)=O)C(C)(C)SSC(C)(C)[C@@H](C(=O)N[C@@H](Cc2ccc(OCCCCC[N+](C)(C)C)cc2)C(=O)N[C@@H](Cc2ccc3ccccc3c2)C(=O)NC2(C(=O)N[C@@H](CCCCNC(C)=O)C(=O)N[C@@H](CC(N)=O)C(=O)N[C@@H](Cc3cccnc3)C(=O)N(C)CC(N)=O)CCCC2)NC1=O [compound 537, MeCO-Pen(3)-N-T-7MeW-K(Ac)-Pen(3)-TMAPF-2Nal-Acpx-K(Ac)-N-3Pya-Sar-CONH2]
8 | 183 | CC(=O)NCCCC[C@@H]1NC(=O)[C@H](Cc2c[nH]c3c(-c4cccc(NC(C)=O)c4)cccc23)NC(=O)[C@H]([C@@H](C)O)NC(=O)[C@H](CC(N)=O)NC(=O)[C@@H](NC(=O)[C@@H](CCCNC(=N)N)NC(C)=O)C(C)(C)SSC(C)(C)[C@@H](C(=O)N[C@@H](Cc2ccc(OCCCCC[N+](C)(C)C)cc2)C(=O)N[C@@H](Cc2ccc3ccccc3c2)C(=O)NC2(C(=O)N[C@@H](CCC(=O)O)C(=O)N[C@@H](CC(N)=O)C(=O)N[C@@H](Cc3cncc(C)c3)C(=O)N(C)CC(N)=O)CCOCC2)NC1=O [compound 540, MeCO-r-Pen(3)-N-T-7(3NAcPh)W-K(Ac)-Pen(3)-TMAPF-2Nal-THP-E-N-5MePyridinAla-Sar-CONH2] (Ac-[dR][Pen]NT[Trp(7-(3-AcNH-Ph))]K(Ac)[Pen]Y(X3)[2Nal][Thp]EN[3Pal(5-Me)][Sar]-NH2; disulfide 2-7)
9 | 180 | CC(=O)NCCCC[C@@H]1NC(=O)[C@H](Cc2c[nH]c3c(C)cccc23)NC(=O)[C@H]([C@@H](C)O)NC(=O)[C@H](CC(N)=O)NC(=O)[C@@H](NC(=O)[C@@H](CCCNC(=N)N)NC(=O)CCOCCOCC[N+](C)(C)C)C(C)(C)SSC(C)(C)[C@@H](C(=O)N[C@@H](Cc2ccc(OCCCCC[N+](C)(C)C)cc2)C(=O)N[C@@H](Cc2ccc3ccccc3c2)C(=O)NC2(C(=O)N[C@@H](CCC(=O)O)C(=O)N[C@@H](CC(N)=O)C(=O)N[C@@H](Cc3cncc(C)c3)C(=O)N(C)CC(N)=O)CCOCC2)NC1=O [compound 542, cPEG3aCO-r-Pen(3)-N-T-7MeW-K(Ac)-Pen(3)-TMAPF-2Nal-THP-E-N-5MePyridinAla-Sar-CONH2] ({Me3N+(CH2)2O(CH2)2O(CH2)2CO}-[dR][Pen]NT[Trp(7-Me)]K(Ac)[Pen]Y(X3)[2Nal][Thp]EN[3Pal(5-Me)][Sar]-NH2; disulfide 2-7)
10 | 163 | CC(=O)NCCCC[C@@H]1NC(=O)[C@H](Cc2c[nH]c3c(C)cccc23)NC(=O)[C@H]([C@@H](C)O)NC(=O)[C@H](CC(N)=O)NC(=O)[C@@H](NC(C)=O)C(C)(C)SSC(C)(C)[C@@H](C(=O)N[C@@H](Cc2ccc(OCC[N+](C)(C)C)cc2)C(=O)N[C@@H](Cc2ccc3ccccc3c2)C(=O)NC2(C(=O)N[C@@H](CCCCNC(C)=O)C(=O)N[C@@H](CC(N)=O)C(=O)N[C@@H](Cc3cccnc3)C(=O)N(C)CC(N)=O)CCOCC2)NC1=O [compound 561, MeCO-Pen(3)-N-T-7MeW-K(Ac)-pen(3)-AEF(NMe3)-2Nal-THP-K(Ac)-N-3Pya-Sar-CONH2]
11 | 166 | CC(=O)NCCCC[C@@H]1NC(=O)[C@H](Cc2c[nH]c3c(C)cccc23)NC(=O)[C@H]([C@@H](C)O)NC(=O)[C@H](CC(N)=O)NC(=O)[C@@H](NC(C)=O)C(C)(C)SSC(C)(C)[C@@H](C(=O)N[C@@H](Cc2ccc(OCC[N+]3(C)CCOCC3)cc2)C(=O)N[C@@H](Cc2ccc3ccccc3c2)C(=O)NC2(C(=O)N[C@@H](CCCCNC(C)=O)C(=O)N[C@@H](CC(N)=O)C(=O)N[C@@H](Cc3cccnc3)C(=O)N(C)CC(N)=O)CCOCC2)NC1=O [compound 562, MeCO-Pen(3)-N-T-7MeW-K(Ac)-Pen(3)-MMoEF-2Nal-THP-K(Ac)-N-3Pya-Sar-CONH2]
12 | 173 | CC(=O)NCCCC[C@@H]1NC(=O)[C@H](Cc2c[nH]c3ccccc23)NC(=O)[C@H]([C@@H](C)O)NC(=O)[C@H](CC(N)=O)NC(=O)[C@@H](NC(=O)[C@@H](CCCC[N+](C)(C)C)NC(C)=O)CCSC[C@@](C)(C(=O)N[C@@H](Cc2ccc(OCCN)cc2)C(=O)N[C@@H](Cc2ccc3ccccc3c2)C(=O)NC2(C(=O)N[C@@H](CCCCNC(C)=O)C(=O)N[C@@H](CC(N)=O)C(=O)N[C@@H](Cc3cccnc3)C(=O)N(C)CC(N)=O)CCOCC2)NC1=O [compound 569, MeCO-k(Me)3-Abu(1)-N-T-W-K(Ac)-aMeC(1)-AEF-2Nal-THP-K(Ac)-N-3Pya-Sar-CONH2] (Ac-[dLys(Me3)][Abu(4-yl)]NTWK(Ac)[αMeC][AEF][2Nal][Thp]K(Ac)N[3Pal][Sar]-NH2; thioether 2-7)
